The source of these data is US20250235486A1, “Method of Producing Insulin-Producing Cells” (Monash University, priority 2022, published 2025).

The subject of test [1] is marmoset exocrine (acinar and ductal) cells. Nature of the test: qRT-PCR gene expression in marmoset exocrine (acinar and ductal) cells. The following applies: 48 hours: GSK126 10 μM, ursolic acid 5 μM. The test is classed as cell-based. On the procedure:
Exocrine cells from a non-diabetic human and a marmoset were cultured and assayed in Miami/CMRL medium. The human exocrine cells were sourced from the Islet Transplant Unit of St Vincent's Institute for Medical Research. The marmoset exocrine cells were sourced from the Australian Regenerative Medicine Institute (ARMI), Monash University. Miami media is based on CMRL 1066 media (Connaught Medical Research Lab) supplemented with: Insulin, Transferrin & Selenium (ITS), human serum, Vitamin E, sodium pyruvate, zinc and HEPES. Pharmacological inhibition of EZH2 and gene expression analysis were performed as described in Example 1.

The subject of test [2] is H3K27me3 or H3K9/14ac content at the promoters of INS-IGF2, NGN3 and PDX1 in human pancreatic ductal epithelial cells. Nature of the test: Quantitative PCR chromatin immunoprecipitation (q-PCR ChIP) after 2- and 7-day stimulation. The test is classed as cell-based. The following applies: 2-day stimulation (FIG. 12b). As to the method: Approximately 5×10^6 cells were fixed in 1% formaldehyde for 10 minutes, with a further 10-minute incubation in 0.125M glycine to quench the cross-linking reaction. The fixed cell pellet was lysed following resuspension and homogenization in sodium dodecyl (lauryl) sulphate (SOS) lysis buffer (1% SOS, 10 mM EDTA, 50 mM Tris-HCl pH 8.1) with a protease inhibitor cocktail (Roche Diagnostics GmBH, Mannheim, Germany) included. Samples were incubated on ice for 5 minutes following which sonication was performed to shear chromatin between 200-600 bp. Sonicated chromatin was resuspended in ChIP Dilution Buffer (0.01% SOS, 1.1% Triton X-100, 1.2 mM EDTA, 16.7 mM Tris-HCl pH 8.0 and 167 mM NaCl). 20 μl of DynabeadsR Protein A (Invitrogen, Carlsbad, CA, USA) was added to each sample and pre-cleared. Overnight incubation at 4° C. with H3K27me3 or H3K9/14ac antibody was used for immunoprecipitation of chromatin, as previously described. Immunoprecipitates were collected by magnetic isolation and washed sequentially with low salt and high salt buffers. Immunoprecipitated DNA was then eluted from solution with 0.1 M NaHCO3 containing 1% SIDS. Protein-DNA cross-links were reversed by incubation of samples in Proteinase K (Sigma, St. Louis, MO, USA) for 2 hours at 62° C. DNA was purified using a Qiagen MinElute column (Qiagen Inc., Valencia, CA, USA). H3K27me3 or H3K9/14ac content at the promoters of the INS-IGF2, NGN3 and PDX1 genes were assessed by qPCR using primers designed from the integrative ENCODE resource.

Consider `CC[C@H](C)n1cc(C)c2c(C(=O)NCc3c(C)cc(C)[nH]c3=O)cc(-c3ccc(N4CCNCC4)nc3)cc21` [GSK126, N-[(1,2-Dihydro-4,6-dimethyl-2-oxo-3-pyridinyl)methyl]-3-methyl-1-[(1S)-1-methylpropyl]-6-[6-(1-piperazinyl)-3-pyridinyl]-1H-indole-4-carboxamide], for which, in test [1], the “Insulin mRNA expression” value was “stimulated expression” and the “Pdx1 mRNA expression” value is listed as “stimulated expression”. Further, in test [2], the “H3K27me3 content of chromatin associated with NGN3 promoter” value was “significantly reduced”, the “H3K27me3 content of chromatin associated with PDX1 promoter” value is “significantly reduced” and the “H3K27me3 content of chromatin associated with the INS promoter domain” value is given as “significantly reduced”.
